Test [1] in a line: Inhibition of human topoisomerase 2 assessed as reduction in decatenatation of kinetoplast DNA incubated for 15 mins by ethidium bromide staining based gel electrophoresis method.
Test [2] is filed under the species Homo sapiens. The test can be described thus: Poison activity at human topoisomerase 2 assessed as increase in linear DNA generation at 5 to 10 uM incubated for 10 mins by ethidium bromide staining based gel electrophoresis based DNA cleavage assay relative to untreated control.
Test [3] has as its target T1, DNA gyrase (Escherichia coli) (UniProt P0AES6+P0AES4). Put plainly: Poison activity at Escherichia coli DNA gyrase assessed as increase in linear DNA generation at 10 uM using supercoiled pBR322 DNA incubated for 10 mins by ethidium bromide staining based gel electrophoresis based DNA cleavage assay relative to untreated control. The format is protein-complex assay.

The target of test [4] is T1, DNA gyrase (Escherichia coli). The test can be described thus: Inhibition of Escherichia coli DNA gyrase subunit GyrA/GyrB supercoiling activity at 10 uM using relaxed pBR322 DNA incubated for 15 mins by ethidium bromide staining based gel electrophoresis method. The format is protein-complex assay.
Test [5] is filed under the species Homo sapiens. Put plainly: Inhibition of human topoisomerase 2 assessed as reduction in decatenatation of kinetoplast DNA at 200 uM incubated for 15 mins by ethidium bromide staining based gel electrophoresis method.
A further test deals with DNA gyrase (Escherichia coli, UniProt P0AES4+P0AES6). Put plainly: Inhibition of Escherichia coli DNA gyrase subunit GyrA/GyrB supercoiling activity using relaxed pBR322 DNA incubated for 15 mins by ethidium bromide staining based gel electrophoresis method. The format is protein-complex assay.

The source made the active and inactive calls. The calls are words filed in the database; no cut-off is given here. Some results are limits rather than exact numbers.

The term IC50 denotes the concentration needed to halve the response being measured. In general, inhibition refers to the relative decrease from the control value, in per cent.

As to `COc1cc([C@@H]2c3cc4c(cc3[C@@H](O[C@@H]3O[C@@H]5CO[C@@H](C)O[C@H]5[C@H](O)[C@H]3O)[C@H]3COC(=O)[C@H]23)OCO4)cc(OC)c1O` [ETOPOSIDE], the IC50 in test [1] was determined as 60 µM. Further, the Activity in the test listed under Homo sapiens [2] was in the range of 400 to 800%.
Regarding `COc1c(N2CC[C@@H](CN)C2)c(F)cc2c(=O)c(C(=O)O)cn(Cc3ccccc3)c12`, the fold change (FC) in test [3] is less than 2. The same molecule had an inhibition in test [4] of 37.7%.
The corresponding values for `COc1c(N2CC[C@@H](CN)C2)c(F)cc2c(=O)c(C(=O)O)cn(CCCc3ccccc3)c12` are less than 2 and 27.1%.
As to `CCN1CCN(c2c(F)cc3c(=O)c(C(=O)O)cn(Cc4ccccc4)c3c2OC)CC1`, the fold change (FC) in test [3] is less than 2. The same molecule showed an inhibition in test [4] of 23.3%.
Turning to `COc1c(N2CC[C@@H](CN)C2)c(F)cc2c1N(C1CC1)CC(C(=O)O)C2=O` (stereo not given in full), in the test filed under Homo sapiens [5], the inhibition result was “inactive”. The molecule also returned an IC50 at DNA gyrase of 0.12 µM. For the same molecule, the fold change (FC) in test [3] is greater than 4. The molecule further gave an inhibition in test [4] greater than 96%.
In the case of `COc1c(N2CC[C@@H](CN)C2)c(F)cc2c(=O)c(C(=O)O)cn(CCCCCN3C(=O)c4ccccc4C3=O)c12`, the fold change (FC) in test [3] was less than 2. For the same molecule, in test [4], the inhibition stood at 20.2%.
Taken in the same sequence, the figures for `COc1c(N2CC[C@@H](CN)C2)c(F)cc2c(=O)c(C(=O)O)cn(CCCCCN)c12` were less than 2 and 12.3%.
As to `COc1ccc(Cn2cc(C(=O)O)c(=O)c3cc(F)c(N4CC[C@@H](CN)C4)c(OC)c32)cc1`, the fold change (FC) in test [3] is less than 2. In test [4], this molecule gave an inhibition of 25.2%.
In the case of `COc1c(N2CC[C@@H](CN)C2)c(F)cc2c(=O)c(C(=O)O)cn(CCCCN3C(=O)c4ccccc4C3=O)c12`, the fold change (FC) in test [3] was less than 2. For the same molecule, in test [4], the inhibition came to 20.4%.
Taken in the same sequence, the figures for `COc1c(N2CC[C@@H](CN)C2)c(F)cc2c(=O)c(C(=O)O)cn(CCCN3C(=O)c4ccccc4C3=O)c12` were less than 2 and less than 5%.
Taken in the same sequence, the figures for `COc1c(N2CC[C@@H](CN)C2)c(F)cc2c(=O)c(C(=O)O)cn(CCc3ccccc3)c12` were less than 2 and 11%.
Turning to `CCN1CCN(c2c(F)cc3c(=O)c(C(=O)O)cn(CCCCCN)c3c2OC)CC1`, in test [3], the fold change (FC) was less than 2. Besides, in test [4], the inhibition was less than 5%.
The corresponding values for `COc1c(N2CC[C@@H](CN)C2)c(F)cc2c(=O)c(C(=O)O)cn(CCCN)c12` are less than 2 and less than 5%.
`COc1c(N2CC[C@@H](CN)C2)c(F)cc2c(=O)c(C(=O)O)cn(CCCCN)c12`: the fold change (FC) in test [3] is less than 2. Moreover, in test [4], the inhibition came out at 25.7%.

(Values after ChEMBL document CHEMBL4118134, “Design, synthesis, and evaluation of novel N-1 fluoroquinolone derivatives: Probing for binding contact with the active site tyrosine of gyrase” (Bioorg Med Chem Lett, 2018).)
